Test results from the supplement of paper PMC10307832.

Experiments:
Assay in all cases: relative viability (nuclei count vs DMSO), 5 days (fraction); higher = more cells survive
[1] = compound: N#CC1(c2ccc(NC(=O)c3cccnc3NCc3ccncc3)cc2)CCCC1 [Apatinib] + COc1cccc2cc(-c3nc([C@H]4CC[C@H](C(=O)O)CC4)n4ncnc(N)c34)[nH]c12 [OSI-027] (partner 0.5 µM)
Summary of the method: (§1)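 Lung cancer cell lines in 1536-well plates were dosed by pin tool the day after seeding, either with one drug alone or with a fixed anchor-drug dose plus five library-drug doses (not always all listed) in √10 steps. After 5 days, cells were fixed and their nuclei stained in one step (final 0.05% Triton X-100, 1% formaldehyde, 1 ug/ml Hoechst), then counted on 4× images. Relative viability is the nuclei count in treated wells divided by that in vehicle wells. Values are medians of duplicate plates.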

[2] = compound: N#CC1(c2ccc(NC(=O)c3cccnc3NCc3ccncc3)cc2)CCCC1 [Apatinib] + C[C@]1(O)C[C@@H](c2nc(-c3ccc4ccc(-c5ccccc5)nc4c3)c3c(N)nccn32)C1 [Linsitinib] (partner 1 µM)
Summary of the method: as §1

[3] = compound: N#CC1(c2ccc(NC(=O)c3cccnc3NCc3ccncc3)cc2)CCCC1 [Apatinib] + Cc1nc(NC(=O)N2CCC[C@H]2C(N)=O)sc1-c1ccnc(C(C)(C)C(F)(F)F)c1 [Alpelisib] (partner 2 µM)
Summary of the method: as §1

[4] = compound: N#CC1(c2ccc(NC(=O)c3cccnc3NCc3ccncc3)cc2)CCCC1 [Apatinib] + O=C(CCCCCCC(=O)Nc1ccccc1)NO [Vorinostat] (partner 1 µM)
Summary of the method: as §1

Cell Line	relative viability ([1]; first compound 0.08 µM)	relative viability ([1]; first compound 0.253 µM)	relative viability ([1]; first compound 0.8 µM)	relative viability ([1]; first compound 2.53 µM)	relative viability ([1]; first compound 8 µM)	relative viability ([2]; first compound 0.08 µM)	relative viability ([2]; first compound 0.253 µM)	relative viability ([2]; first compound 0.8 µM)	relative viability ([2]; first compound 2.53 µM)	relative viability ([2]; first compound 8 µM)	relative viability ([3]; first compound 0.08 µM)	relative viability ([3]; first compound 0.253 µM)	relative viability ([3]; first compound 0.8 µM)	relative viability ([3]; first compound 2.53 µM)	relative viability ([3]; first compound 8 µM)	relative viability ([4]; first compound 0.08 µM)	relative viability ([4]; first compound 0.253 µM)	relative viability ([4]; first compound 0.8 µM)	relative viability ([4]; first compound 2.53 µM)	relative viability ([4]; first compound 8 µM)
NCI-H1651	0.782	0.867	0.647	0.683	0.599	1.13	1.13	0.895	0.91	0.784	1.03	1.11	0.786	0.851	0.83	0.583	0.522	0.528	0.48	0.577
SK-MES-1	0.589	0.585	0.6	0.496	0.37	1.13	0.975	1.1	1.07	0.942	0.825	0.928	0.822	0.929	0.658	1.18	1.14	1.04	0.961	0.928
NCI-H2085	0.858	0.706	0.767	0.612	0.549	0.879	0.987	0.949	0.745	0.815	1.05	0.931	0.931	0.858	0.792	0.77	0.777	0.711	0.73	0.742
SK-LU-1	0.326	0.395	0.298	0.303	0.246	1.1	1.3	1.04	0.809	0.787	1.15	1.15	0.979	0.906	0.692	0.905	0.778	0.776	0.722	0.554
COR-L23	0.844	0.792	0.673	0.669	0.6	1.09	0.927	0.931	0.746	0.713	0.966	0.743	0.772	0.774	0.652	0.516	0.461	0.333	0.415	0.427
COR-L 105	0.775	0.806	0.619	0.582	0.491	0.994	1.15	0.705	0.985	0.676	1.01	1.23	0.82	0.921	0.731	1.09	0.795	0.872	0.782	0.805
HCC-44	0.457	0.524	0.395	0.446	0.522	0.673	0.759	0.66	0.711	0.592	0.854	0.784	0.745	0.766	0.726	1.07	1.07	1.08	1.01	0.934
PC-3 [JPC-3]	0.747	0.639	0.627	0.517	0.571	0.98	0.961	0.885	0.797	0.894	1	0.996	0.989	0.938	0.888	–	0.756	0.733	0.533	0.799
H3255	0.551	0.569	0.539	0.51	0.535	1.17	0.819	0.954	0.896	0.836	0.665	0.674	0.569	0.614	0.537	0.768	0.737	0.764	0.74	0.794
RERF-LC-KJ	0.554	0.592	0.533	0.51	0.497	0.908	0.908	0.821	0.845	0.757	0.857	0.875	0.779	0.751	0.823	0.625	0.72	0.63	0.695	0.577
NCI-H2347	0.478	0.354	0.48	0.361	0.282	1	0.888	1.01	0.932	0.9	0.943	1.02	1	1.02	0.944	0.655	0.569	0.619	0.542	0.557
NCI-H520	0.262	0.229	0.219	0.25	0.224	1.12	0.948	0.842	0.876	0.878	0.924	0.865	0.918	0.685	0.633	0.77	0.736	0.708	0.672	0.452
NCI-H1395	0.614	0.701	0.662	0.693	0.639	1.19	1.08	1.16	1.07	0.847	1.23	1.16	1.06	1.18	0.931	0.772	0.815	0.64	0.535	0.605
LK-2	0.217	0.197	0.157	0.205	0.167	0.602	0.356	0.631	0.503	0.399	1.33	1.29	1.04	1.01	0.919	0.267	0.269	0.248	0.145	0.228
PC-14	0.805	0.956	0.596	0.748	0.602	0.988	1.03	0.86	0.95	1.02	0.935	0.861	0.876	0.875	0.838	0.821	0.755	0.639	0.606	0.547
NCI-H2023	0.499	0.42	0.342	0.296	0.207	0.816	0.886	0.615	0.683	0.607	0.64	0.675	0.587	0.514	0.559	0.774	0.673	0.811	0.58	0.483
NCI-H838	0.456	0.393	0.361	0.357	0.422	1.14	1.18	0.962	0.985	1.04	1.06	1.03	0.935	0.958	0.942	0.778	0.784	0.702	0.652	0.722

Cell Line	relative viability ([1]; first compound 0.08 µM)	relative viability ([1]; first compound 0.253 µM)	relative viability ([1]; first compound 0.8 µM)	relative viability ([1]; first compound 2.53 µM)	relative viability ([1]; first compound 8 µM)	relative viability ([2]; first compound 0.08 µM)	relative viability ([2]; first compound 0.253 µM)	relative viability ([2]; first compound 0.8 µM)	relative viability ([2]; first compound 2.53 µM)	relative viability ([2]; first compound 8 µM)	relative viability ([3]; first compound 0.08 µM)	relative viability ([3]; first compound 0.253 µM)	relative viability ([3]; first compound 0.8 µM)	relative viability ([3]; first compound 2.53 µM)	relative viability ([3]; first compound 8 µM)	relative viability ([4]; first compound 0.08 µM)	relative viability ([4]; first compound 0.253 µM)	relative viability ([4]; first compound 0.8 µM)	relative viability ([4]; first compound 2.53 µM)	relative viability ([4]; first compound 8 µM)
EKVX	0.684	0.688	0.654	0.639	0.558	1.04	1.09	0.985	0.862	0.795	0.92	0.861	0.882	0.761	0.774	0.816	0.752	0.713	0.589	0.57
NCI-H1944	0.419	0.387	0.361	0.378	0.405	1.19	1.22	1.06	1.25	1.26	0.868	0.905	0.74	0.798	0.866	0.519	0.526	0.454	0.422	0.419
EPLC-272H	0.308	–	0.268	0.246	0.247	1.19	1.07	1.23	1.23	1.12	1.04	0.904	0.841	0.971	0.903	0.532	0.372	0.396	0.346	0.256
NCI-H1666	0.883	0.826	0.797	0.73	0.755	0.861	0.99	0.92	0.917	0.724	0.943	1.01	0.936	0.979	0.943	1.03	1.03	1.05	0.976	0.915
NCI-H322M	0.551	0.533	0.52	0.518	0.46	1.13	0.878	0.978	0.974	0.842	0.782	0.744	0.766	0.89	0.782	0.846	0.846	0.885	0.897	0.885
NCI-H1437	0.84	0.954	0.861	0.615	0.645	1.03	1.06	0.879	0.653	0.475	1.03	1.11	0.911	0.912	0.644	0.854	0.928	0.71	0.554	0.534
NCI-H23	0.637	0.658	0.535	0.46	0.377	0.694	0.652	0.501	0.568	0.542	0.665	0.911	0.595	0.627	0.558	0.696	0.793	0.568	0.491	0.524
NCI-H647	0.77	0.619	0.576	0.593	0.528	1.32	1.18	1.01	1.04	1.02	1.39	1.21	1.1	0.799	0.706	0.596	0.868	0.473	0.669	0.343
NCI-H2009	0.796	0.617	0.536	0.337	0.193	1.26	1.16	1.17	1.08	0.799	1.13	1.2	1.1	1.02	0.893	0.701	0.776	0.669	0.627	0.48
HCC-78	0.355	0.298	0.384	0.34	0.332	0.631	0.395	0.536	0.405	0.401	0.414	0.291	0.364	0.25	0.382	0.524	0.396	0.427	0.402	0.374
LCLC-97TM1	0.516	0.427	0.456	0.395	0.329	0.224	0.169	0.173	0.164	0.142	0.281	0.21	0.256	0.206	0.154	0.911	0.758	0.695	0.577	0.337
NCI-H650	0.493	0.491	0.446	0.381	0.388	0.787	0.871	0.756	0.734	0.663	1.23	1.25	1.04	1.03	0.987	0.494	0.422	0.391	0.264	0.42
HOP-62	0.917	0.874	0.799	0.714	0.605	1.19	–	0.896	0.821	0.786	0.727	–	1.15	0.801	0.713	0.613	0.679	0.567	0.476	0.323
LC-2-ad	0.752	0.761	0.828	0.813	0.68	0.863	0.831	0.864	0.652	0.507	0.9	0.798	0.802	0.824	0.652	0.735	0.753	0.721	0.633	0.665
NCI-H2126	0.816	0.641	0.666	0.585	0.664	0.733	0.69	0.675	0.631	0.652	0.818	0.761	0.758	0.743	0.767	0.86	0.717	0.671	0.768	0.755
NCI-H1975	0.718	0.901	0.55	0.418	0.42	0.988	0.954	0.931	0.854	0.888	0.662	0.691	0.508	0.562	0.576	0.761	0.696	0.641	0.634	0.557
